These results are taken from patent US20250051282A1, “COMPOUNDS FOR TREATING POLYQ-RELATED NEURODEGENERATIVE DISORDERS” (HANGZHOU JIJING PHARMACEUTICAL TECHNOLOGY LIMITED, priority 2021, published 2025).

Where a name gives a salt, the structure may show the parent alone.

The test system of one test is ATXN1(60Q). Kind of test: Daoy-ATXN1(60Q)-mATXN1 MSD assay (CTG normalized). It counts as cell-based. Conditions: Daoy-Flag-ATXN1(60Q) stable cells, compound added Day 2, lysis Day 3, final DMSO 0.3%, read-out: Daoy-ATXN1(60Q)-mATXN1 MSD (CTG normalized) DC50. How it is done: Protocol for MSD Assay: Daoy-ATXN1(600)-mATXN1 MSD (CTG normalized)
The Flag-ATXN1(60Q) gene is synthesized by Genescript and cloned into the pLVX-IRES-Puro vector (Takarabio, catalog No. 632183) using EcoRI/BamHI restriction enzyme sites. Lentivirus is made by transfecting HEK293T cells with pLVX-IRES-Puro-Flag-ATXN1(60Q) plasmids and packaging plasmids psPAX2 and pMD2.G at 4:3:1 ratio (8:6:[…], respectively) in 10 cm plates, and are harvested at 48 hours post transfection. Daoy cells (ATCC catalog No. HTB-186) seeded in T25 flasks are infected with the lentivirus in the presence of 8 µg/mL polybrene (Sigma, TR-1003-G) for 24 hours. 48 hours post infection, the cells are selected using 0.5 […] (Sigma, P8833) for more than 5 days until all cells in the uninfected group die. The expression of Flag-ATXN1(60Q) is verified by anti-Flag immunoblot using anti-Flag antibody (Sigma, F1804-200UG, M2).
As explained above, Daoy-Flag-ATXN1(60Q) cells are prepared as a stable cell line by infecting Daoy cells with lentivirus. The media for the cells is EMEM (ATTC, 30-2008) with 10% fetal bovin serum (FBS).
On Day 1, the Daoy-Flag-ATXN1(60Q) cells are seeded in a 96 well plate at a concentration of 1.2×10^4/well. On Day 2, the cells are treated with test compounds at test concentrations (compounds are serially diluted with DMSO to obtain test concentrations, such that final DMSO concentration is 0.3%). On Day 3, the cells are washed with 100 μL of phosphate-buffered saline (PBS) per well, and then 30 μL of radioimmuno-precipitation assay (RIPA) buffer (with protease and phosphatase inhibitor cocktail) is added to each well.
The well plate is then cooled on ice for 30 minutes in order to complete lysis, and MSD samples are prepared using 10 μL of Daoy-Flag-ATXN1-60Q lysate and 90 μL of RIPA buffer with gentle mixing. Each MSD sample has a total volume of 100 μL, and is used immediately or stored at −80° C.
A standard Meso Scale Discovery (MSD) plate is coated with anti-Flag (Sigma, F1804-200UG, M2) in PBS at 1:500 dilution ratio and 40 µL/well, and is incubated at 4° C. overnight with shaking at 600 rpm. Then, the MSD plate is washed 3 times with 150 µL/well of 1X TBST (tris-buffered saline (TBS) with Tween 20) buffer, and the MSD plate is blocked with 150 μL of blocking buffer [3% Blocker A in 1X TBST, (3 g Blocker A per 100 mL 1X TBST)] and shaken for 1 hour at 600 rpm at room temperature. Then, the MSD plate is washed three times with 150 μL/well of 1X TBST. Next, the diluted lysate samples (from Sample Preparation above) are added to the MSD plate at 25 μL/well, and the MSD plate is shaken at 600 rpm for 1 hour at room temperature. Then the MSD plate is washed 3 times with 150 μL/well of 1X TBST.
Detection antibody anti-Ataxin 1 (G-bio, ITA1916) (1:500), which is prepared in antibody detection buffer (1% Blocker A in 1X TBST), is then added to the MSD plate at 25 µL/well, and the MSD plate is shaken at 600 rpm for 1 hour at room temperature. The MSD plate is then washed three times with 150 μL/well of 1X TBST. Next, a secondary detection antibody, Goat anti-rabit (GAR) with SULFO-TAG (1:500), which is prepared in antibody detection buffer (1% Blocker A in 1X TBST), is added at 25 μL/well and the MSD plate is shaken at 600 rpm for 1 hour at room temperature. Then the MSD plate is washed 3 times with 150 μL/well of 1X TBST, and 2X MSD reading buffer is added at 150 μL/well (diluted from 4x MSD reading buffer with water). Finally, the signal from each well is measured on the MSD Meso QuickPle SQ120 Plate Reader. DC50 data is calculated using collaborate drug discovery (CDD) software (https://www.collaborativedrug.com/about).
Regarding `CN/C(=C1\C(=O)Nc2ccc(Br)cc21)c1cccc(O)c1` [Example 1, (Z)-5-bromo-3-((3-hydroxyphenyl) (methylamino)methylene) indolin-2-one], the DC50 is below 10 µM.

For `O=C1Nc2ccc(Br)cc2/C1=C(/NCCCF)c1cccc(O)c1` [Example 6, (Z)-5-bromo-3-(((3-fluoropropyl)amino) (3-hydroxyphenyl)methylene)indolin-2-one], the DC50 was below 10 µM.

In the case of `O=C1Nc2ccc(Br)cc2/C1=C(/NC1CC1)c1cccc(O)c1` [Example 7, (Z)-5-bromo-3-((cyclopropylamino) (3-hydroxyphenyl)methylene)indolin-2-one], the DC50 was below 10 µM.

Take `O=C1Nc2ccc(Br)cc2/C1=C(/NC1CCC1)c1cccc(O)c1` [Example 8, (Z)-5-bromo-3-((cyclobutylamino) (3-hydroxyphenyl)methylene)indolin-2-one]: the DC50 was below 10 µM.

On to `CN1CC(N/C(=C2\C(=O)Nc3ccc(Br)cc32)c2cccc(O)c2)C1` [Example 9, (Z)-5-bromo-3-((3-hydroxyphenyl)((1-methylazetidin-3-yl)amino)methylene) indolin-2-one], for which the DC50 was below 10 µM.

Consider `O=C1Nc2ccc(Br)cc2/C1=C(\c1cccc(O)c1)N1CCCCC1` [Example 12, (Z)-5-bromo-3-((3-hydroxyphenyl) (piperidin-1-yl)methylene) indolin-2-one], for which the DC50 was above 30 µM.

Turning to `CN1CCC(N/C(=C2\C(=O)Nc3ccc(Br)cc32)c2cccc(O)c2)CC1` [Example 15, (Z)-5-bromo-3-((3-hydroxyphenyl)((1-methylpiperidin-4-yl)amino)methylene) indolin-2-one], the DC50 is below 10 µM.

`O=C1Nc2ccc(Br)cc2/C1=C(/Nc1c[nH]cn1)c1cccc(O)c1` [Example 17, (Z)-3-(((1H-imidazol-4-yl)amino)(3-hydroxyphenyl)methylene)-5-bromoindolin-2-one]: the DC50 was below 10 µM.

For the compound `O=C1Nc2ccc(OC(F)(F)F)cc2/C1=C(/NCCO)c1cccc(O)c1` [Example 18, (Z)-3-(((2-hydroxyethyl)amino)(3-hydroxyphenyl)methylene)-5-(trifluoromethoxy) indolin-2-one], the DC50 was below 10 µM.

`O=C1Nc2ccc(Br)cc2/C1=C(/NCCCF)c1ccccc1` [Example 19, (Z)-5-bromo-3-(((3-fluoropropyl)amino) (phenyl)methylene) indolin-2-one]: the DC50 was below 10 µM.

`O=C1Nc2ccc(Br)cc2/C1=C(/NCCCF)c1cccc(C(F)F)c1` [Example 20, (Z)-5-bromo-3-((3-(difluoromethyl)phenyl)((3-fluoropropyl)amino)methylene) indolin-2-one]: the DC50 is below 10 µM.

Regarding `Cn1cc(N/C(=C2\C(=O)Nc3ccc(Br)cc32)c2cccc(F)c2)cn1` [Example 21, (Z)-5-bromo-3-((3-fluorophenyl)((1-methyl-1H-pyrazol-4-yl)amino)methylene) indolin-2-one], the DC50 was above 30 µM.

Regarding `Cn1cc(N/C(=C2\C(=O)Nc3ccc(Br)cc32)c2ccccc2)cn1` [Example 22, (Z)-5-bromo-3-(((1-methyl-1H-pyrazol-4-yl)amino)(phenyl)methylene)indolin-2-one], the DC50 lay in the range of 10 to 30 µM.

As to `O=C1Nc2ccc(Br)cc2/C1=C(/NC1CCNC1)c1cccc(O)c1` (stereo not shown) [Example 24, (Z)-5-bromo-3-((3-hydroxyphenyl) (pyrrolidin-3-ylamino)methylene) indolin-2-one formate], the DC50 is above 30 µM.

Consider `O=C1Nc2ccc(Br)cc2/C1=C(/NC1CCNCC1)c1cccc(O)c1` [Example 25, (Z)-5-bromo-3-((3-hydroxyphenyl) (piperidin-4-ylamino)methylene) indolin-2-one], for which the DC50 was below 10 µM.

Staying with this test, now noted: read-out: Daoy-ATXN1(60Q)-mATXN1 MSD (CTG normalized) DC50, Daoy-Flag-ATXN1(60Q) stable cells, compound added Day 2, lysis Day 3, final DMSO 0.3%.
For the compound `CCCN/C(=C1\C(=O)Nc2ccc(Br)cc21)c1cccc(O)c1` [Example 5, (Z)-5-bromo-3-((3-hydroxyphenyl) (propylamino)methylene) indolin-2-one], the DC50 is below 10 µM.
